# Test system: oncolytic RNA viruses including vesicular stomatitis virus (VSV) and measles
# Conditions: cited from earlier work
row,Molecule,Replication and spread of oncolytic RNA viruses (in words)
1,"Cc1occc(=O)c1[O-].Cc1occc(=O)c1[O-].[O]=[V+2] [BMOV, bismaltolatoxovanadate]",improve the replication and spread of oncolytic RNA viruses
2,[O]=[V]([O-])([O-])[O-] [orthovanadate],improve the replication and spread of oncolytic RNA viruses

# Test system: VSVD51-GFP in 786-0 cells
# Format: cell-based, human
# Conditions: not given
Molecule,Approximate Peak Viral Sensitizer Dose,Viral sensitization activity / VSVD51 spread (in words)
"[O]=[V]([O-])([O-])[O-] [Vanadate, vanadate, reference compound]",200 µM,increase in GFP foci
vanadium (IV) citrate [CDOS139],–,exhibited viral sensitization activity
vanadium (V) citrate [CDOS140],30 µM,exhibited viral sensitization activity
vanadium (V) citrate peroxo [CDOS141],50 µM,exhibited viral sensitization activity

# From patent US20240293352A1 (priority 2021, published 2024)
